IC50 and HbA1c levels lowered data for nine compounds are collected here from patent US9517228B2, “Cannabinoid receptor antagonists/inverse agonists useful for treating metabolic disorders, including obesity and diabetes” (Jenrin Discovery, priority 2012, dated 2016).

One assay deals with CB1R (Mus musculus (Mouse), UniProt P47746). Kind of assay: CB1R competition displacement binding with [3H]CP-55,940. Conditions: [3H]CP-55,940 radioligand, crude membranes from mouse brain, triplicates; read-out: CB1 IC50. Here is the method:
Compound binding to CB1R was assessed in competition displacement assays using [3H]CP-55,940 as the radioligand and crude membranes from mouse brain. See Tam, J., Vemuri, V. K., Liu, J., Batkai, S., Mukhopadhyay, B., Godlewski, G., Osei-Hyiaman, D., Ohnuma, S., Ambudkar, S. V., Pickel, J., et al., J. Clin. Invest. 2010, 120, 2953-2966. All data were in triplicates with Ki values determined from three independent experiments.

For assay [1] the following is noted: type 2 diabetes patients not on other anti-diabetic medications, six months of treatment, baseline value 7.9; cited from earlier work.

pIC50: −log10 of the molar value.

Chain of CB1R (P47746 whole entry): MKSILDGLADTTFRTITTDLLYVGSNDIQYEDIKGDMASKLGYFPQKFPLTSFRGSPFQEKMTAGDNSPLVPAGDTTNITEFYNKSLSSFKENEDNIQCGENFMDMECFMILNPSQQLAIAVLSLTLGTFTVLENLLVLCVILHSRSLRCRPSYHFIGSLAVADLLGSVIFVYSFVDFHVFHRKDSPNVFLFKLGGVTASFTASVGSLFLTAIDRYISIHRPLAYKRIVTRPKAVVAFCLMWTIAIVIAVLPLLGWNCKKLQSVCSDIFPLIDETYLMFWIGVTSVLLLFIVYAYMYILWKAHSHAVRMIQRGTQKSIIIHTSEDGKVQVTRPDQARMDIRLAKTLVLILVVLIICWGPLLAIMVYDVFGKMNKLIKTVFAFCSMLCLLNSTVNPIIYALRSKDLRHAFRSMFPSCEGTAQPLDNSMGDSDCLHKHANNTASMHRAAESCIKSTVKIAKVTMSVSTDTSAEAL

One may read the pIC50 as the IC50 on a negative log10 scale, so that one unit is a factor of ten. `NC(=O)CN/C(=N\S(=O)(=O)c1ccc(Cl)cc1)N1C[C@H](c2ccccc2)C(c2ccc(Cl)cc2)=N1` [Example 1]: at CB1R, the negative logarithm of the IC50 (pIC50) is > 7.00. The same measure, in the same setting: the figure for `NC(=O)CN/C(=N\S(=O)(=O)c1ccc(Cl)cc1)N1C[C@@H](c2ccccc2)C(c2ccc(Cl)cc2)=N1` [Example 1a] is < 6.00. In the case of `C[C@@H](O)[C@H](N/C(=N\S(=O)(=O)c1ccc(Cl)cc1)N1C[C@H](c2ccccc2)C(c2ccc(Cl)cc2)=N1)C(N)=O` [Example 2, (2S,3R)-2-((S)-3-(4-chlorophenyl)-N′-((4-chlorophenyl)sulfonyl)-4-phenyl-4,5-dihydro-1H-pyrazole-1-carboximidamido)-3-hydroxybutanamide], the pIC50 at CB1R was > 7.00. On to `C[C@@H](O)[C@H](N/C(=N\S(=O)(=O)c1ccc(Cl)cc1)N1C[C@@H](c2ccccc2)C(c2ccc(Cl)cc2)=N1)C(N)=O` [Example 2a, (2S,3R)-2-((R)-3-(4-chlorophenyl)-N′-((4-chlorophenyl)sulfonyl)-4-phenyl-4,5-dihydro-1H-pyrazole-1-carboximidamido)-3-hydroxybutanamide], for which the pIC50 on CB1R is < 6.00. The same measure, in the same setting: the figure for `NC(=O)[C@H](CO)N/C(=N\S(=O)(=O)c1ccc(Cl)cc1)N1C[C@H](c2ccccc2)C(c2ccc(Cl)cc2)=N1` [Example 3] is > 7.00; for `NC(=O)[C@H](CO)N/C(=N\S(=O)(=O)c1ccc(Cl)cc1)N1C[C@@H](c2ccccc2)C(c2ccc(Cl)cc2)=N1` [Example 3a] it is 6.00 to 6.30; for `CC(C)[C@H](N/C(=N\S(=O)(=O)c1ccc(Cl)cc1)N1C[C@H](c2ccccc2)C(c2ccc(Cl)cc2)=N1)C(N)=O` [Example 4] it is > 7.00.

With `CC(C)[C@H](N/C(=N\S(=O)(=O)c1ccc(Cl)cc1)N1C[C@@H](c2ccccc2)C(c2ccc(Cl)cc2)=N1)C(N)=O` [Example 4a], the pIC50 at CB1R was < 6.00.

Turning to `Cc1c(C(=O)NN2CCCCC2)nn(-c2ccc(Cl)cc2Cl)c1-c1ccc(Cl)cc1` [rimonabant], in assay [1], the HbA1c levels lowered is 0.8%.
